Here are results for 1 molecule from patent US20260151379A1, “SALT TYPE AND CRYSTAL FORM OF COMPLEMENT FACTOR B INHIBITOR, AND PREPARATION METHOD THEREFOR AND APPLICATION THEREOF” (SHANGHAI MEIYUE BIOTECH DEVELOPMENT CO., LTD., priority 2022, published 2026).

The structures appear in SMILES notation.

For this test, the system named is cynomolgus monkey serum AP activity. Briefly: PD of single intragastric administration to cynomolgus monkeys (serum complement AP activity, wieslab assay). The format is in vivo. Conditions: intragastric 3 mpk and 30 mpk. On the procedure:
Cynomolgus monkeys were used. Each group consisted of 3 cynomolgus monkeys, and they were given the control compound at 3 mpk, the control compound at 30 mpk, the compound of formula I at 3 mpk, and the compound of formula I at 30 mpk by intragastric administration. Blood was collected at different time points and used for drug concentration analysis and complement activity detection. The compound concentration in plasma was determined by LC-MS/MS. The complement activity in serum was determined using a wieslab assay (Svar Life Science AB, COMPL AP330 RUO) kit, Normal Human Serum (Complement Technology, NHS).

Turning to `COc1cc(C)c2[nH]ccc2c1CN1CC[C@H](OCC2CC2)C[C@H]1c1ccc(C(=O)O)cc1` [Compound of formula I], the “Inhibition of cynomolgus monkey serum AP activity (in words, FIG. 22)” value is “can effectively inhibit the cynomolgus monkey serum AP activity”.
